According to patent US10618885B2, “Compounds that activate autophagy” (Macau University of Science and Technology, priority 2018, dated 2020):
Like-named read-outs stand apart in the source and are kept apart here.

Tests used:
Type in all cases: cell-based
HeLa cells = test: Annexin V cell death analysis by flow cytometry, with or without wortmannin; conditions: 24 hours; for compound-mediated cell death on blocking of autophagy by wortmannin: 5 μM compound plus 1 μM wortmannin; for percentage of cell death: 5 μM compound, annexin V staining, without wortmannin
Description: Apoptosis was detected by Annexin V staining kit (BD Biosciences, San Jose, Calif., USA). In brief, cells were exposed to the indicated concentrations of […] for 24 hours. Cells were then harvested and analyzed by flow cytometry using FITC-Annexin V and Propidium Iodide staining according to the manufacturer's instructions. Apoptotic cells were quantitatively counted by a flow cytometer (BD FACSAria III, San Jose, Calif., USA). Data acquisition and analysis were performed with CellQuest (BD Biosciences, San Jose, Calif., USA) from triple independent experiments.
To investigate whether the autophagy induced by compounds 2a, 2b, 3a, and 4a contributes to cell death, Annexin V cell death analysis was conducted. HeLa cells treated with these compounds (5 μM) in the presence or absence of 1 μM of wortmannin for 24 hours were assayed by flow cytometry after annexin V staining. Bar charts of FIGS. 5C and 5E represent the quantitation of cell death (%).

[1] = test system: LC3 conversion (LC3-I to LC3-II) in HeLa cells; test: Western blot for autophagic marker LC3 conversion in HeLa cells; conditions: 24 hours, three concentrations, normalised to β-actin
Description: After drug treatment, adherent and floating cells were lysed with RIPA lysis buffer. Protein concentrations were determined using the Bio-Rad protein assay (Bio-Rad Laboratories, Inc., Hercules, Calif., USA). The cell lysates of samples were subjected to electrophoresis on SDS polyacrylamide gels and transferred to Hybond enhanced chemiluminescence nitrocellulose membranes (Amersham Biosciences, Piscataway, N.J.), which were then blocked with 5% non-fat dry milk protein for 1 hour. Membranes were then incubated with the indicated primary antibodies overnight at 4° C. The binding of the antibody was visualized by peroxidase-coupled secondary antibody using the ECL (enhanced chemiluminescence) Western Blotting Detection Reagents (Invitrogen, Paisley, Scotland, UK). Band intensities were quantified by using the software ImageJ (NIH, Bethesda, Md., USA).
The presence of the autophagy marker protein, LC3-II was determined in HeLa cells by western blot analysis. HeLa cancer cells were treated with dauricine (Dau) or compounds 2a-4b with three indicated concentrations for 24 hours. Cell lysates were analyzed by Western blot for LC3 conversion ([…]) and β-actin. The western blot was shown in FIGS. 4A, 4C, 4E, 4G, 4I, 4K, and 4M. LC3-II band intensities were quantified using densitometric analysis and normalised to β-actin. The results were shown in FIGS. 4B, 4D, 4F, 4H, 4J, 4L and 4N. Data are expressed as a fold change relative to the DMSO-treated negative control. Bars are representatives of three independent experiments. Error bars, SEM. *, P<0.05; **, P<0.01; ***, P<0.001.

HeLa cancer cells = test: MTT cytotoxicity assay in HeLa cancer cells
Description: All test compounds were dissolved in DMSO (Dimethyl sulfoxide) at final concentrations of 50 mmol/L and stored at −20° C. before use. Cytotoxicity was assessed using the 3-(4, 5-dimethylthiazol-2-yl)-2, 5-diphenyltetrazolium bromide (MTT) (5.0 mg/ml) assay. Briefly, 4×10^3 cells were seeded per well in 96-well plates before drug treatment. After overnight culture, the cells were then exposed to different concentrations of test compounds (0.039-100 μmol/L) for 72 hours. Cells without drug treatment were used as control. Subsequently, MTT (10 μL) was added to each well and incubated at 37° C. for 4 hours followed by the addition of 100 μL solubilization buffer (10% SDS (Sodium dodecyl sulfate) in 0.01 mol/L HCl) and overnight incubation. A570 nm was determined from each well on the next day. The percentage of cell viability was calculated using the following formula: Cell viability (%)=Atreated/Acontrol×100. Data were obtained from triplication independent experiments.
FIG. 1 is a graph 100 showing cell viability of HeLa cells treated with dauricine, N-desmethyldauricine, and compounds 2a-4b. HeLa cancer cells in 96 well-plates were treated with 0 to 20 μM of dauricine (Dau), N-desmethyldauricine (NDau) and dauricine derivatives (2a-4b) for 72 hours. Cell cytotoxicity was then assessed using the 3-(4, 5-dimethylthiazol-2-yl)-2, 5-diphenyltetrazolium bromide (MTT) (5.0 mg/ml) assay. The IC50 values shown in FIG. 1 are mean values of three independent experiments.

[2] = test system: GFP-LC3 stable HeLa cells; test: Autophagy LC3 puncta detection in GFP-LC3 stable HeLa cells; conditions: 24 hours; for formation of GFP-LC3 puncta (fluorescence images): compared with untreated cells; for percentage of cells with GFP-LC3 puncta (dose dependence): three concentrations
Description: The detection of LC3 autophagic puncta was conducted using GFP-LC3 stable HeLa cancer cells as described below. In brief, compounds-treated GFP-LC3-HeLa cells on cover slips were fixed with 4% paraformaldehyde (Sigma) for 20 min at room temperature and then rinsed with PBS (phosphate-buffered saline). The coverslips were then mounted with FLUORSAVE™ mounting media (Calbiochem, San Diego, Calif., USA) for fluorescence imaging and the localization of LC3 autophagosomes were captured under the API Delta Vision Live-cell Imaging System (Applied Precision Inc., GE Healthcare Company, Washington, USA). To quantify autophagy, guidelines were followed to monitor autophagy, the percentage of cells with punctuate LC3 immunofluorescence staining was calculated by counting the number of the cells showing the increased punctuate pattern of LC3 fluorescence (≥10 dots/cell) in immunofluorescence-positive cells over the total number of cells in the same field. A minimum of 1000 cells from randomly selected fields were scored.
FIG. 2A-3H show identification of compounds 2a-4b with autophagic activities. GFP-LC3 puncta in compound-treated GFP-LC3-HeLa cells were detected. GFP-LC3 stable HeLa cells were treated with DMSO (−ve Ctrl) or the indicated concentrations of dauricine (Dau), N-desmethyldauricine (NDau) and dauricine derivatives (2a-4b) for 24 hours. Representative fluorescence images from the highest tested concentration of compound captured at 60× magnification were shown; scale bar, 15 μm. Bar charts represent the quantitation of autophagic cells. The percentages of autophagic cells were calculated as the number of cells with GFP-LC3 puncta (≥10 puncta/cell) divided by the total number of GFP-positive cells in the same field.

[3] = HeLa cancer cells, 72 hours, MTT, mean of three independent experiments, read-out: IC50 (cytotoxicity)

Question: `COc1cc2c(cc1OC)C(Cc1ccc(Oc3cc(CC4c5cc(OC)c(OC)cc5CCN4C)ccc3OC(=O)N(c3ccccc3)c3ccccc3)cc1)N(C)CC2` (centres unmarked) [Compound 2a] was tested. Which “compound-mediated cell death on blocking of autophagy by wortmannin” value (from here on “compound-mediated cell death on blocking”) (HeLa cells) did it give?
Answer: The value was “significantly inhibited”.

Question: And the “percentage of cell death” value (HeLa cells)?
Answer: The value was “markedly increased the percentage of cell death”.

Question: And the “conversion of LC3-I to LC3-II (fold change relative to DMSO control)” value [1]?
Answer: Its value is “increased the conversion of LC3-I to LC3-II in a dose dependent manner”.

Question: What about the IC50 (HeLa cancer cells; [3]) of the same compound?
Answer: The IC50 was 5.44 µM.

Question: With `COc1cc2c(cc1OC)C(Cc1ccc(Oc3cc(CC4c5cc(OC)c(OC)cc5CCN4C)ccc3OC(=O)N(C)c3ccccc3)cc1)N(C)CC2` (centres unmarked) [Compound 2b] as the compound, how does the “compound-mediated cell death on blocking” value (HeLa cells) read?
Answer: Its value is “significantly inhibited”.

Question: And the “percentage of cell death” value (HeLa cells)?
Answer: The value was “markedly increased the percentage of cell death”.

Question: And the “conversion of LC3-I to LC3-II (fold change relative to DMSO control)” value [1]?
Answer: Its value is “increased the conversion of LC3-I to LC3-II in a dose dependent manner”.

Question: And the IC50 (HeLa cancer cells; [3])?
Answer: Its IC50 is 6.72 µM.

Question: How did the “conversion of LC3-I to LC3-II (fold change relative to DMSO control)” value [1] turn out when `COc1cc2c(cc1OC)C(Cc1ccc(Oc3cc(CC4c5cc(OC)c(OC)cc5CCN4C)ccc3OC(=O)N(C)C)cc1)N(C)CC2` (centres unmarked) [Compound 2c] was run?
Answer: Its value is “increased the conversion of LC3-I to LC3-II in a dose dependent manner”.

Question: `CCN(C)C(=O)Oc1ccc(CC2c3cc(OC)c(OC)cc3CCN2C)cc1Oc1ccc(CC2c3cc(OC)c(OC)cc3CCN2C)cc1` (centres unmarked) [Compound 2d] was tested. Which “conversion of LC3-I to LC3-II (fold change relative to DMSO control)” value [1] did it give?
Answer: Its value is “increased the conversion of LC3-I to LC3-II in a dose dependent manner”.

Question: Which “conversion of LC3-I to LC3-II (fold change relative to DMSO control)” value [1] does the source give for `CCN(CC)C(=O)Oc1ccc(CC2c3cc(OC)c(OC)cc3CCN2C)cc1Oc1ccc(CC2c3cc(OC)c(OC)cc3CCN2C)cc1` (centres unmarked) [Compound 2e] here?
Answer: The value was “increased the conversion of LC3-I to LC3-II in a dose dependent manner”.

Question: With `COc1cc2c(cc1OC)C(Cc1ccc(Oc3cc(CC4c5cc(OC)c(OC)cc5CCN4C)ccc3OC(=O)N(C)OC)cc1)N(C)CC2` (centres unmarked) [Compound 2f] as the compound, how does the “conversion of LC3-I to LC3-II (fold change relative to DMSO control)” value [1] read?
Answer: Its value is “increased the conversion of LC3-I to LC3-II in a dose dependent manner”.

Question: How did the “conversion of LC3-I to LC3-II (fold change relative to DMSO control)” value [1] turn out when `COc1cc2c(cc1OC)C(Cc1ccc(Oc3cc(CC4c5cc(OC)c(OC)cc5CCN4C)ccc3OC(=O)N3CCOCC3)cc1)N(C)CC2` (centres unmarked) [Compound 2g] was run?
Answer: Its value is “increased the conversion of LC3-I to LC3-II in a dose dependent manner”.

Question: With `COc1cc2c(cc1OC)C(Cc1ccc(Oc3cc(CC4c5cc(OC)c(OC)cc5CCN4C)ccc3OC(=O)c3ccccc3)cc1)N(C)CC2` (centres unmarked) [Compound 3a] as the compound, how does the “compound-mediated cell death on blocking” value (HeLa cells) read?
Answer: Its value is “significantly inhibited”.

Question: And the “percentage of cell death” value (HeLa cells)?
Answer: The value was “markedly increased the percentage of cell death”.

Question: And the “conversion of LC3-I to LC3-II (fold change relative to DMSO control)” value [1]?
Answer: The value was “increased the conversion of LC3-I to LC3-II in a dose dependent manner”.

Question: What about the IC50 (HeLa cancer cells; [3]) of the same compound?
Answer: The IC50 was 6.44 µM.

Question: With `COc1cc2c(cc1OC)C(Cc1ccc(Oc3cc(CC4c5cc(OC)c(OC)cc5CCN4C)ccc3OC(=O)c3ccco3)cc1)N(C)CC2` (centres unmarked) [Compound 3b] as the compound, how does the “conversion of LC3-I to LC3-II (fold change relative to DMSO control)” value [1] read?
Answer: Its value is “increased the conversion of LC3-I to LC3-II in a dose dependent manner”.

Question: For `COc1cc2c(cc1OC)C(Cc1ccc(Oc3cc(CC4c5cc(OC)c(OC)cc5CCN4C)ccc3OS(=O)(=O)c3ccc(C)cc3)cc1)N(C)CC2` (centres unmarked) [Compound 4a], which “compound-mediated cell death on blocking” value (HeLa cells) is on record?
Answer: Its value is “significantly inhibited”.

Question: And the “percentage of cell death” value (HeLa cells)?
Answer: Its value is “markedly increased the percentage of cell death”.

Question: What about the “conversion of LC3-I to LC3-II (fold change relative to DMSO control)” value [1] of the same compound?
Answer: The value was “increased the conversion of LC3-I to LC3-II in a dose dependent manner”.

Question: What about the IC50 (HeLa cancer cells; [3]) of the same compound?
Answer: Its IC50 is 6.1 µM.

Question: `COc1cc2c(cc1OC)C(Cc1ccc(Oc3cc(CC4c5cc(OC)c(OC)cc5CCN4C)ccc3OS(C)(=O)=O)cc1)N(C)CC2` (centres unmarked) [Compound 4b] was tested. Which “conversion of LC3-I to LC3-II (fold change relative to DMSO control)” value [1] did it give?
Answer: Its value is “increased the conversion of LC3-I to LC3-II in a dose dependent manner”.

Question: How did the “formation of GFP-LC3 puncta (fluorescence images)” value [2] turn out when `COc1cc2c(cc1OC)[C@@H](Cc1ccc(Oc3cc(C[C@H]4NCCc5cc(OC)c(OC)cc54)ccc3O)cc1)N(C)CC2` [N-desmethyldauricine, reference compound] was run?
Answer: Its value is “increased formation of GFP-LC3 puncta”.

Question: What about the “percentage of cells with GFP-LC3 puncta (dose dependence)” value [2] of the same compound?
Answer: The value was “induced autophagic puncta in HeLa cells in a dose-dependent manner”.

Question: What about the “conversion of LC3-I to LC3-II (fold change relative to DMSO control)” value [1] of the same compound?
Answer: The value was “increased the conversion of LC3-I to LC3-II in a dose-dependent manner”.

Question: And the IC50 (HeLa cancer cells)?
Answer: The IC50 was 15.8 µM.

Question: What does the source list for `COc1cc2c(cc1OC)[C@@H](Cc1ccc(Oc3cc(C[C@@H]4c5cc(OC)c(OC)cc5CCN4C)ccc3O)cc1)N(C)CC2` [dauricine, reference compound]?
Answer: formation of GFP-LC3 puncta (fluorescence images) [2]: increased formation of GFP-LC3 puncta; percentage of cells with GFP-LC3 puncta (dose dependence) [2]: induced autophagic puncta in HeLa cells in a dose-dependent manner; conversion of LC3-I to LC3-II (fold change relative to DMSO control) [1]: increased the conversion of LC3-I to LC3-II in a dose-dependent manner; IC50 (HeLa cancer cells; Homo sapiens, HeLa, 72 h, read-out: IC50 (cytotoxicity)): 15.5 µM

Question: `COC[C@H]1OC(=O)c2coc3c2[C@@]1(C)C1=C(C3=O)[C@@H]2CCC(=O)[C@@]2(C)C[C@H]1OC(C)=O` [wortmannin, reference compound] was tested. Which “cytotoxic effect of wortmannin alone” value (HeLa cells; wortmannin alone (1 μM)) did it give?
Answer: The value was “no cytotoxic effect”.
